Reference: PMC5412883, “An intranasally delivered peptide drug ameliorates cognitive decline in Alzheimer transgenic mice” (EMBO Molecular Medicine, 2017)
Where a SMILES comes first, the peptide text is derived from it. [ ]: non-standard residue; d: D form.

Assays:
Aβ40 = molecular target: T1, Aβ40 (Homo sapiens, UniProt P05067); assay: Inhibition of Aβ40 fibrillization (CD spectra, TEM); assay type: biochemical; conditions: for Aβ40 fibril formation in the presence of peptide at 1:1 ratio (kinetics of CD spectra): authors' reply in review file
T1 construct: made in house; host or cells: chemical solid-phase peptide synthesis (Fmoc-polyamide), no expression host
T1 sequence (P05067 672-711): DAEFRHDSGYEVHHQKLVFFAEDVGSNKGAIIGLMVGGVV
Description: (§1) The 1.4 mM stock solution of each peptide in 75% trifluoroethanol was diluted to a final concentration of 30 μM in 20 mM sodium phosphate buffer with 150 mM KCl (PBS, pH 7). Each was incubated at 25°C for designated time points and placed in a 1‐mm cell to record the CD spectra between 200 and 250 nm on a J‐715 CD spectrometer (JASCO, Japan). The band width was set to 2 nm, and the step resolution was 0.05 nm. Each sample was scanned twice and the average of these two measurements was smoothed by the Savitzky–Golay method to get the final CD spectrum.
(§2) The samples were deposited on carbon‐coated 300‐mesh copper grids, incubated for 3 min for absorption, and then washed by water. Negative staining was carried out by staining with 2% uranyl acetate for 1.5 min. After air drying, the samples were viewed using a Hitachi H‐7000 electron microscope (Hitachi, Japan).
Appendix Figure S2. Effect of the designed bipartite peptides on inhibition of A β 40 fibrillization. The peptides were dissolved in 20 mM sodium phosphate buffer with 150 mM KCl and incubated at 25 °C. Peptide concentration is 30 µM for each peptide. The CD spect ra of A β 40 (A), the Aβ 40/R 8-Aβ (25-35) mixture (1:1) (B), and the Aβ 40/DR8-Aβ (25-35) mixture (1:1) (C) were recorded at the indicated incubation times shown in (A). The spectrum change is pointed out by an arrow in (A), indicating the formation of cross-β structure in the am yloid fibrils. (D) The time course of am yloido gen es is of Aβ 40 with and without the designed peptide inhibitors .
The CD spectra were not smoothed. (A) is the same as Fi g. S1A.
(§3) (1 picture or pasted object on this page, not shown here)

[1] = CD spectra and TEM of the single peptides (conformation, self-aggregation); assay type: physicochemical; conditions: 30 μM peptide in 20 mM sodium phosphate buffer with 150 mM KCl (pH 7), 25°C; for amyloid fibril formation (TEM): incubation for 168 h; for conformation by CD spectra: spectra largely unchanged with incubation time
Description: The circular dichroism (CD) spectra were recorded at various time points as indicated. […] The CD spectra of both peptides remained largely unchanged with the incubation time.
as §1, §2
DR8-Aβ (25-35). The peptides were dissolved in 20 mM sodium phosphate b u ff e r with 150 mM KCl and incubated at 25 °C. Pept ide concentration is 30 µ M. (A-C) The CD spectra were recorded at the indicated incubation time shown in (A).(D -F) […]
formed nucleus ver y fast and β -sheet signal (negative ellipticity at 218 nm) can be seen in the beginning of i ncubation. The CD spectra were not smoothed.
as §3

Neuro2a cells = assay: Cell viability by MTT assay, peptide alone; assay type: cell-based, mouse; conditions: 30 μM peptide, MTT 48 h later, N = 6
Description: (§4) Data information: Peptide concentration is 30 μM for each peptide. Standard deviations of the mean are shown as bars for each sample (N = 6 for pure peptide and N = 12 for mixture). The statistics were done by Student's t‐test. Mouse N2a neuroblastoma cells (ATCC) were cultured in Dulbecco's modified Eagle's medium (DMEM) (HyClone, USA) supplemented with 10% fetal bovine serum (HyClone, USA). Cells were harvested with DMEM and suspended at a density of 3.5 × 10^5 cells/ml. 100 μl from each sample was plated in one well of a 96‐well CellBIND microplate (Corning, USA) and then incubated at 37°C under 5% CO2 for 24 h. Five microliters from each stock peptide (6 mM) in DMSO was diluted with 95 μl of PBS (pH 7.0) and then 900 μl of DMEM to a final concentration of 30 μM.

[2] = system: Aβ40 toxicity to Neuro2a cells; assay: Attenuation of Aβ40 cytotoxicity, MTT assay; assay type: cell-based, mouse; conditions: Aβ40 30 μM premixed with 30 μM peptide for 24 h at room temperature; Aβ40 alone 30%; MTT 48 h later, N = 12
Description: as §4

CC[C@H](C)[C@H](NC(=O)[C@H](C)NC(=O)CNC(=O)[C@H](CCCCN)NC(=O)[C@H](CC(N)=O)NC(=O)[C@H](CO)NC(=O)CNC(=O)[C@@H](CCCNC(=N)N)NC(=O)[C@@H](CCCNC(=N)N)NC(=O)[C@@H](CCCNC(=N)N)NC(=O)[C@@H](CCCNC(=N)N)NC(=O)[C@@H](CCCNC(=N)N)NC(=O)[C@@H](CCCNC(=N)N)NC(=O)[C@@H](CCCNC(=N)N)NC(=O)[C@@H](CCCNC(=N)N)NC(C)=O)C(=O)N[C@H](C(=O)NCC(=O)N[C@@H](CC(C)C)C(=O)N[C@@H](CCSC)C(N)=O)[C@@H](C)CC [^DR8‐Aβ(25–35)] (Ac-[dR][dR][dR][dR][dR][dR][dR][dR]GSNKGAIIGLM-NH2)
Aβ40 fibril formation in the presence of peptide at 1:1 ratio (kinetics of CD spectra) (Aβ40): failed to formed fibrils | inhibition effect on Aβ40 fibrillization, 1:1 mixture (Aβ40; Aβ40 30 μM and peptide 30 μM (1:1), pH 7, 25°C, CD): inhibition effect was also observed | amyloid fibril formation (TEM) [1]: did not form amyloid fibrils at all | conformation by CD spectra [1]: random coil structure | toxicity to the N2a cells (Neuro2a cells): no detectable toxicity | cell viability with Aβ40 plus equal molar peptide [2]: 70–75%

Ac-RRRRRRRRGSNKGAIIGLM-NH2 [R8‐Aβ(25–35)]
Aβ40 fibril formation in the presence of peptide at 1:1 ratio (kinetics of CD spectra) (Aβ40): failed to formed fibrils | inhibition effect on Aβ40 fibrillization at the lowest ratio (Aβ40; Aβ40 30 μM : peptide 1:0.1): observed even when its concentration was ten times lower than Aβ40 | effect on formation of Aβ40 amyloid fibrils (CD 218 nm, TEM) (Aβ40; Aβ40 30 μM mixed with peptide at 1:0.1, 1:0.2 or 1:1 molar ratio, pH 7, 25°C): significantly delayed or decreased the formation of Aβ40 amyloid fibrils | amyloid fibril formation (TEM) [1]: did not form amyloid fibrils at all | conformation by CD spectra [1]: random coil structure | toxicity to the N2a cells (Neuro2a cells): no detectable toxicity | cell viability with Aβ40 plus equal molar peptide [2]: 70–75%
